Earlier results as cited in US8916150B2 (priority 2009, dated 2014).

Columns and labels:
[1] = system: botulinum toxin light chain (LC)
[2] = in vivo
LC of BoNT-A = LC of BoNT-A (Clostridium botulinum, UniProt P0DPI1)
Chain of LC of BoNT-A (P0DPI1 2-448 limits assumed): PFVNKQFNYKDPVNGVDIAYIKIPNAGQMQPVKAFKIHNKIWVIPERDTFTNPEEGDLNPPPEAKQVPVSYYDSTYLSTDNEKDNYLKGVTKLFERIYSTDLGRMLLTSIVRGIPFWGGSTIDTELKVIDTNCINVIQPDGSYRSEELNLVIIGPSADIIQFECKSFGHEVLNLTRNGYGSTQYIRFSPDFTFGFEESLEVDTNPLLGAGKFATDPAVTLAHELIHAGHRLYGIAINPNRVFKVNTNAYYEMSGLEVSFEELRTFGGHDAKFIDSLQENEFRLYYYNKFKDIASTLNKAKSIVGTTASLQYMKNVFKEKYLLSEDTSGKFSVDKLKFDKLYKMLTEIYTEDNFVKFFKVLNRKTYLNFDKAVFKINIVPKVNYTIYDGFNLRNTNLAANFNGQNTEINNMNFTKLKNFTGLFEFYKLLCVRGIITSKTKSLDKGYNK

O=C(O)CN(CCN(CC(=O)O)CC(=O)O)CC(=O)O [EDTA, ethylenediaminetetraacetate]
effect on LC enzymatic activity on removal of Zn2+ [1]: completely abolishes enzymatic activity

CC(=O)[O-].CC(=O)[O-].[Zn+2] [zinc acetate]
nausea and vomiting after single dose [2]: induces nausea and vomiting

[Cl-].[Cl-].[Zn+2] [zinc chloride]
effect on autocatalytic fragmentation of LC (LC of BoNT-A): enhanced
